Assay results published in US9512120B2, “Microbicidally active imidazopyridine derivatives” (Syngenta Participations AG, priority 2013, dated 2016).

Assays:
[1] = system: Glomerella lagenarium (Colletotrichum lagenarium); assay: Glomerella lagenarium (Colletotrichum lagenarium) / liquid culture (anthracnose); type: cell-based; conditions: Colletotrichum orbiculare, PDB, 24° C., 3-4 days after application, read-out: control of Glomerella lagenarium (inhibition of growth, photometric)
Procedure, shortened: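 Cryopreserved conidia suspended in potato dextrose broth were added to compound in DMSO applied at 200 ppm. Plates incubated at 24° C; growth inhibition read photometrically 3-4 days after application.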

[2] = system: Puccinia recondita f. sp. Tritici; assay: Puccinia recondita f. sp. tritici / wheat / leaf disc curative (brown rust); type: in vivo; conditions: foliar, wheat leaf segments cv Kanzler, applied 1 day after inoculation, assessed 6-8 days after application, read-out: control of Puccinia recondita f. sp. Tritici (percent disease control compared to untreated)
Procedure: Puccinia recondita f. Sp. Tritici/Wheat/Leaf Disc Curative (Brown Rust): Wheat leaf segments cv Kanzler were placed on agar in 24-well plates. The leaf segments were inoculated with a spore suspension of the fungus. The plates were stored in darkness at 19° C. and 75% relative humidity. The formulated test compound diluted in water was applied at an application rate of 200 ppm 1 day after inoculation. […] Tritici at 200 ppm when compared to untreated control leaf disks under the same conditions, which show extensive disease development: 2, 13, 16, 23, 30, 61, 75, 89, 103, 173, 174

Pythium ultimum = Pythium ultimum / liquid culture (seedling damping off); type: cell-based; conditions: Globisporangium ultimum, potato dextrose broth, 24° C., 2-3 days after application, read-out: control of Pythium ultimum (inhibition of growth, photometric)
Procedure, shortened: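 Test compound in DMSO at 200 ppm was incubated with mycelia fragments and oospores in potato dextrose broth at 24 °C. Growth inhibition was read photometrically 2-3 days after application.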

Plasmopara viticola = Plasmopara viticola / grape / leaf disc preventative; type: in vivo; conditions: foliar, grape vine leaf disks, inoculated 1 day after application, assessed 6-8 days after application, read-out: control of Plasmopara viticola (percent disease control compared to untreated)
[3] = system: Blumeria graminis f. Sp. Tritici (Erysiphe graminis f. Sp. Tritici); assay: Blumeria graminis f. sp. tritici / wheat / leaf disc preventative (powdery mildew on wheat); type: in vivo; conditions: foliar, wheat leaf segments cv. Kanzler, inoculated 1 day after application, assessed 6-8 days after application, read-out: control of Blumeria graminis (percent disease control compared to untreated)
Procedure, shortened: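 Wheat leaf segments (cv. Kanzler) on agar sprayed with formulated compound at 200 ppm, inoculated with powdery mildew 1 day later. Held at 20 °C, 60% RH, 24 h dark then 12 h/12 h light; percent disease control versus untreated scored 6-8 days after application.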

[4] = system: Mycosphaerella arachidis (Cercospora arachidicola); assay: Mycosphaerella arachidis (Cercospora arachidicola) / liquid culture (early leaf spot); type: cell-based; conditions: PDB, 24° C., 4-5 days after application, read-out: control of Mycosphaerella arachidis (inhibition of growth, photometric)
Procedure, shortened: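 Conidia suspended in potato dextrose broth and added to test compound from DMSO solution at 200 ppm. Incubated at 24 °C; growth inhibition read photometrically 4-5 days after application.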

Sclerotinia sclerotiorum = Sclerotinia sclerotiorum liquid culture (cottony rot / white mold); type: cell-based; conditions: PDB, 24° C., 3-4 days after application, read-out: control of Sclerotinia sclerotiorum (inhibition of growth, photometric)
Procedure, shortened: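 Mycelia fragments of Sclerotinia sclerotiorum in potato dextrose broth were added to compound in DMSO. Cultures incubated at 24° C; growth inhibition determined photometrically 3-4 days after application.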

Fusarium culmorum = assay: microbe, parasite or virus in culture; type: cell-based; conditions: read-out: control of Fusarium culmorum (inhibition of growth, photometric)
[5] = system: Fusarium graminearum, syn. Gibberella zeae; assay: whole plant or invertebrate; type: in vivo; conditions: in Triticum aestivum, 144 h, read-out: control of Gibberella zeae (preventative fungicidal activity)

## CCCn1c(-n2ncnc2N)nc2cncc(CC)c21 [Compound 174, 2-(7-ethyl-1-propyl-imidazo[4,5-c]pyridin-2-yl)-1,2,4-triazol-3-amine]
[1]
  inhibition at 20 ppm: ≥ 80%
[2]
  pest or weed control at 200 ppm: ≥ 80%
Pythium ultimum
  inhibition at 20 ppm: ≥ 80%
Plasmopara viticola
  pest or weed control at 200 ppm: ≥ 80%
[3]
  pest or weed control at 200 ppm: ≥ 80%

## CCn1c(-n2ncnc2N)nc2cncc(C(C)=O)c21 [Compound 75, 1-[2-(5-amino-1,2,4-triazol-1-yl)-1-ethylimidazo[4,5-c]pyridin-7-yl]ethanone]
[4]
  inhibition at 20 ppm: ≥ 80%
Sclerotinia sclerotiorum
  inhibition at 20 ppm: ≥ 80%
[2]
  pest or weed control at 200 ppm: ≥ 80%
other
  melting point: 242 to 244 °C
[3]
  pest or weed control at 200 ppm: ≥ 80%

## CCn1c(-n2ncnc2N)nc2cncc(-c3ccc(F)c(F)c3F)c21 [Compound 86, 2-[1-ethyl-7-(2,3,4-trifluorophenyl)imidazo[4,5-c]pyridin-2-yl]-1,2,4-triazol-3-amine]
[1]
  inhibition at 20 ppm: ≥ 80%
[4]
  inhibition at 20 ppm: ≥ 80%
Sclerotinia sclerotiorum
  inhibition at 20 ppm: ≥ 80%
Pythium ultimum
  inhibition at 20 ppm: ≥ 80%
Fusarium culmorum
  inhibition at 20 ppm: ≥ 80%
[3]
  pest or weed control at 200 ppm: ≥ 80%

## CCn1c(-n2ncnc2N)nc2cncc(-c3cccnc3F)c21 [Compound 89, 2-[1-ethyl-7-(2-fluoropyridin-3-yl)imidazo[4,5-c]pyridin-2-yl]-1,2,4-triazol-3-amine]
[1]
  inhibition at 20 ppm: ≥ 80%
Sclerotinia sclerotiorum
  inhibition at 20 ppm: ≥ 80%
[2]
  pest or weed control at 200 ppm: ≥ 80%
Pythium ultimum
  inhibition at 20 ppm: ≥ 80%
Fusarium culmorum
  inhibition at 20 ppm: ≥ 80%
[3]
  pest or weed control at 200 ppm: ≥ 80%
[5]
  pest or weed control at 20 ppm: ≥ 80%

## CCc1cncc2nc(-n3ncnc3N)n(CC)c12 [Compound 23, 2-(1,7-diethylimidazo[4,5-c]pyridin-2-yl)-1,2,4-triazol-3-amine]
[1]
  inhibition at 20 ppm: ≥ 80%
[4]
  inhibition at 20 ppm: ≥ 80%
Sclerotinia sclerotiorum
  inhibition at 20 ppm: ≥ 80%
[2]
  pest or weed control at 200 ppm: ≥ 80%
Pythium ultimum
  inhibition at 20 ppm: ≥ 80%
Fusarium culmorum
  inhibition at 20 ppm: ≥ 80%
other
  melting point: 176 to 179 °C
[3]
  pest or weed control at 200 ppm: ≥ 80%
[5]
  pest or weed control at 20 ppm: ≥ 80%

## CCn1c(-n2ncnc2N)nc2cncc(-c3cccc(OC)c3F)c21 [Compound 93, 2-[1-ethyl-7-(2-fluoro-3-methoxyphenyl)imidazo[4,5-c]pyridin-2-yl]-1,2,4-triazol-3-amine]
[1]
  inhibition at 20 ppm: ≥ 80%
[4]
  inhibition at 20 ppm: ≥ 80%
Sclerotinia sclerotiorum
  inhibition at 20 ppm: ≥ 80%
Fusarium culmorum
  inhibition at 20 ppm: ≥ 80%
[3]
  pest or weed control at 200 ppm: ≥ 80%
[5]
  pest or weed control at 20 ppm: ≥ 80%

## CCn1c(-n2ncnc2N)nc2cncc(-c3cccc(Cl)c3F)c21 [Compound 90, 2-[7-(3-chloro-2-fluorophenyl)-1-ethylimidazo[4,5-c]pyridin-2-yl]-1,2,4-triazol-3-amine]
[1]
  inhibition at 20 ppm: ≥ 80%
[4]
  inhibition at 20 ppm: ≥ 80%
Sclerotinia sclerotiorum
  inhibition at 20 ppm: ≥ 80%
Fusarium culmorum
  inhibition at 20 ppm: ≥ 80%
[3]
  pest or weed control at 200 ppm: ≥ 80%
[5]
  pest or weed control at 20 ppm: ≥ 80%

## CC=Cc1cncc2nc(-n3ncnc3N)n(CC)c12 [Compound 67, 2-(1-ethyl-7-prop-1-enylimidazo[4,5-c]pyridin-2-yl)-1,2,4-triazol-3-amine]
[1]
  inhibition at 20 ppm: ≥ 80%
[4]
  inhibition at 20 ppm: ≥ 80%
Sclerotinia sclerotiorum
  inhibition at 20 ppm: ≥ 80%
Pythium ultimum
  inhibition at 20 ppm: ≥ 80%
[3]
  pest or weed control at 200 ppm: ≥ 80%

## CCn1c(-n2ncnc2N)nc2cncc(/C(C)=N\OC/C=C(\C)Cl)c21 [Compound 153, 2-[7-[(Z)-N-[(E)-3-chlorobut-2-enoxy]-C-methyl-carbonimidoyl]-1-ethyl-imidazo[4,5-c]pyridin-2-yl]-1,2,4-triazol-3-amine]
[1]
  inhibition at 20 ppm: ≥ 80%
[4]
  inhibition at 20 ppm: ≥ 80%
Sclerotinia sclerotiorum
  inhibition at 20 ppm: ≥ 80%
Fusarium culmorum
  inhibition at 20 ppm: ≥ 80%
Plasmopara viticola
  pest or weed control at 200 ppm: ≥ 80%
[3]
  pest or weed control at 200 ppm: ≥ 80%

## CCCn1c(-n2ncnc2N)nc2cncc(C)c21 [Compound 173, 2-(7-methyl-1-propyl-imidazo[4,5-c]pyridin-2-yl)-1,2,4-triazol-3-amine]
[1]
  inhibition at 20 ppm: ≥ 80%
[4]
  inhibition at 20 ppm: ≥ 80%
[2]
  pest or weed control at 200 ppm: ≥ 80%
Pythium ultimum
  inhibition at 20 ppm: ≥ 80%
[3]
  pest or weed control at 200 ppm: ≥ 80%

## CCCn1c(-n2ncnc2N)nc2cnccc21 [Compound 13, 2-(1-propylimidazo[4,5-c]pyridin-2-yl)-1,2,4-triazol-3-amine]
[1]
  inhibition at 20 ppm: ≥ 80%
[4]
  inhibition at 20 ppm: ≥ 80%
[2]
  pest or weed control at 200 ppm: ≥ 80%
Pythium ultimum
  inhibition at 20 ppm: ≥ 80%
other
  melting point: 210 to 212 °C
[3]
  pest or weed control at 200 ppm: ≥ 80%
[5]
  pest or weed control at 20 ppm: ≥ 80%

## CCn1c(-n2ncnc2N)nc2cncc(-c3cccc(F)c3F)c21 [Compound 102, 2-[7-(2,3-difluorophenyl)-1-ethylimidazo[4,5-c]pyridin-2-yl]-1,2,4-triazol-3-amine]
[1]
  inhibition at 20 ppm: ≥ 80%
[4]
  inhibition at 20 ppm: ≥ 80%
Sclerotinia sclerotiorum
  inhibition at 20 ppm: ≥ 80%
Pythium ultimum
  inhibition at 20 ppm: ≥ 80%
Fusarium culmorum
  inhibition at 20 ppm: ≥ 80%
[3]
  pest or weed control at 200 ppm: ≥ 80%
[5]
  pest or weed control at 20 ppm: ≥ 80%
